Among the data in PubChem BioAssay (NCI) are TGI and GI50 values, retold here.

What all share (assay): NCI-60 cell line screen, 48 h
Test [1] deals with A498 renal.
In test [2] the test system is CCRF-CEM leukemia.
Test [3] has as its system COLO 205 colon.
For test [4], the system named is HT29 colon.
Test [5] relates to LOX IMVI melanoma.
The test system of test [6] is MDA-MB-231 breast.
The subject of test [7] is SN12C renal.
The subject of test [8] is SNB-19 CNS.
For test [9], the system named is SR leukemia.
Test [10] relates to RXF 393 renal.

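Cells were grown in 96-well plates and exposed to each compound for 48 hours at five concentrations; endpoints were interpolated linearly between bracketing concentrations, or set to the highest concentration if not reached. Abbreviation: GI50, concentration required for 50% inhibition of growth. Definition used: TGI = concentration required for complete inhibition of growth.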 Where a SMILES comes first, the peptide text is derived from it. The star is where a group is joined. Cbz = O=C(OCc1ccccc1)*; OBn = c1ccc(CO*)cc1

For `O=[N+]([O-])c1ccc(N=Nc2c(O)c(S(=O)(=O)O)cc3cc(S(=O)(=O)O)ccc23)cc1`, the TGI in [1], in test [2], in test [3], in test [4], in test [5] and in test [6] was over 100 µM each time. The TGI in test [7], in test [8] and in test [9] was over 100 µM in each case.
For `Cc1[nH]c2ccccc2c1C=Nc1ccc(N=Cc2c(C)[nH]c3ccccc23)cc1`, the TGI is over 100 µM in test [1]; 47.6 µM in [2]; 27.3 µM in test [3]; over 100 µM in test [4]; 36.5 µM in test [5]; over 100 µM in test [6]. Moreover, the TGI in test [10] is over 100 µM; in [7], over 100 µM; in test [8], over 100 µM; in [9] it was 46.9 µM.
On to `NC(=O)c1ccc2c(c1)S(=O)(=O)c1ccccc1C2=O`, for which the TGI in test [1], in test [2], in test [3], in test [4], in test [5] and in test [6] was over 100 µM throughout. Moreover, the TGI in test [10], in test [7], in [8] and in test [9] was over 100 µM in each case.
Regarding `COC(=O)C(Cc1ccc(O)cc1)NC(=O)C(CC(=O)OCc1ccccc1)NC(=O)OCc1ccccc1` (configuration not stated) (Cbz-Asp(OBn)-Tyr-OMe; configuration not given here), the TGI in test [1] was 62.4 µM; in test [2], over 100 µM; in test [3], 39.4 µM; in test [4], 32.2 µM; in test [6], 37.5 µM; in test [10] it was 29.5 µM. Also, the figures for the TGI in test [7], in test [8] and in test [9] were 39.3 µM, 34.1 µM and 66.3 µM, respectively.
For `CCCCCCCCCCCCCCCCCCNc1ccn(C2OC(COP(=O)(O)OCC3OC(n4cc(C)c(=O)[nH]c4=O)CC3N=[N+]=[N-])C(O)C2O)c(=O)n1` (configuration not stated), the TGI was 48.7 µM in test [2]; 30.7 µM in [3]; 35.1 µM in test [4]; 37.8 µM in test [5]; 56.7 µM in test [6]; 48.1 µM in test [7]. For the same molecule, the TGI in test [8] was determined as 59.7 µM; in [9], 80 µM.
On to `COc1ccc2c(c1)N=C1CSC(c3ccccc3Cl)N1C2` (configuration not stated), for which the TGI in test [3] is 42.4 µM; in test [4], 19.6 µM; in [5] it was 23 µM; in test [6], over 100 µM; in test [10] it was 25.4 µM; in [7] it was 37.5 µM. Also, the TGI was over 100 µM in test [8] and 16 µM in [9].
Consider `OC1(c2cc3ccccc3s2)CCCCC1`, for which the TGI in test [1] was over 100 µM; in [2], 66.7 µM; in test [3], 41.8 µM; in [4], 54.5 µM; in test [5], over 100 µM; in test [6] it was 87.5 µM. Besides, the TGI in [10], in test [7], in [8] and in [9] was over 100 µM throughout.
On to `C(=C\c1ccccc1)/C=N/c1nc2cc3sc(/N=C/C=C/c4ccccc4)nc3cc2s1`, for which the TGI is over 100 µM in test [1]; over 100 µM in test [2]; over 25.8 µM in test [3]; over 100 µM in [4]; over 100 µM in test [5]; over 100 µM in test [6]. Moreover, the TGI in test [10] is over 100 µM; in [7], over 100 µM; in test [8], over 100 µM; in test [9], 32.4 µM.
In the case of `COC(=O)n1c(=O)n(-c2ccccc2)c(=O)n1C(=O)OC`, the TGI in test [1], in test [2], in test [3], in [4], in [5] and in test [6] was over 100 µM each time. Further, the TGI in [10], in test [7], in test [8] and in test [9] was over 100 µM each time.
For the molecule `COC(=O)/C=C(/C(=O)OC)c1c(C)c(C)c2c(C)cc(C)cc(C)c1-2`, the TGI was over 100 µM in [1]; over 100 µM in test [2]; over 100 µM in test [3]; 34.3 µM in test [4]; over 100 µM in test [5]; over 100 µM in test [6]. The TGI in [10], in test [7], in test [8] and in test [9] was over 100 µM each time.
For `O=C1C(Br)=CC2(C=C1Br)CCNC1=C2C(=O)c2cccnc2C1=O`, the TGI amounted to 25.5 µM in test [2]; 30.1 µM in test [3]; 56.7 µM in test [4]; 18.9 µM in test [5]; 31.1 µM in [6]; 21.3 µM in [10]. Moreover, the TGI in test [7] was 25.1 µM; in [8], 20 µM; in test [9] it was 18.5 µM.
On to `CCOc1nc(-c2ccccc2)cc(-c2ccc(N3CCOCC3)cc2)c1C#N`, for which the TGI in test [1], in test [2], in test [3], in [4], in [5] and in test [6] was over 100 µM each time. Also, the TGI in [10], in test [7], in test [8] and in test [9] was over 100 µM each time.
On to `COC(=O)c1cc(C#N)[nH]c1-c1ccc(C)s1`, for which the TGI in [1] is 68.1 µM; in [2], over 100 µM; in [3], over 100 µM; in test [6], over 100 µM; in test [10] it was 46.7 µM; in test [7], over 100 µM. The TGI in test [8] and in test [9] was over 100 µM each time.
Turning to `Cc1cn(CC2=NCC(C)(C)N2)c(=O)[nH]c1=O`, the TGI in [1], in [2], in test [3], in test [4], in test [5] and in test [6] was over 100 µM throughout. Besides, the TGI in test [10], in [7], in test [8] and in test [9] was over 100 µM each time.
`CC(C)c1ccc(/C=C2\CSCC3=C2NC(=S)NC3c2ccc(C(C)C)cc2)cc1` (configuration not stated): the TGI in test [2], in [3], in test [4], in [5], in [6] and in [10] was over 100 µM each time. The TGI in [7], in [8] and in [9] was over 100 µM throughout.
With `O=S1(=O)c2ccccc2C(=NO)c2ccccc21`, the TGI in [1], in [2], in test [3], in [4], in test [5] and in [6] was over 100 µM each time. For the same molecule, the TGI in [10], in test [7] and in test [9] was over 100 µM each time.
As for `O=c1[nH]c(=O)n(Cc2ccccc2CO)cc1Sc1ccccc1`, the TGI was over 100 µM in [2]; over 100 µM in test [3]; over 100 µM in [4]; 33.8 µM in test [6]; 80.9 µM in test [10]; over 100 µM in test [7]. Also, the TGI in test [8] and in test [9] was over 100 µM each time.
Turning to `NC(=S)Nc1[nH]c(=S)nc2c1SC1=N/C(=C\c3ccco3)C(=O)N12`, the TGI is over 100 µM in test [1]; over 85.4 µM in [2]; over 100 µM in test [3]; over 100 µM in test [4]; over 100 µM in [5]; over 100 µM in test [6]. For the same molecule, the TGI in test [10] was over 100 µM; in test [7], over 100 µM; in test [8] it was over 100 µM; in [9], over 70.7 µM.
Consider `COc1cc(CC2c3cc(OC)c(OC)cc3CCN2C)c(Oc2cc3c(cc2OC)-c2c(O)c(OC)cc4c2C(C3)N(C)CC4)cc1OC` (configuration not stated), for which the TGI in test [1] was 43 µM; in [2], 42.8 µM; in test [3] it was 42.5 µM; in [4], 36.6 µM; in test [5] it was 67.9 µM; in test [6] it was 37.7 µM. Besides, the TGI in [10] worked out at 9.35 µM; in [7] it was 42 µM; in test [8], 57.4 µM; in test [9] it was 17.5 µM.
As for `C=CCNC(=O)NC1=CSC2=NC(=O)C3(NN12)c1ccccc1-c1ccccc13`, the TGI in test [2], in [3], in test [4], in test [5], in test [6] and in test [10] was over 10 µM each time. Also, the TGI in test [7], in test [8] and in test [9] was over 10 µM in each case.
With `COc1ccc(N=N/C(=N/NC(=O)c2ccccc2)c2ccc(N(CCC#N)CCC#N)cc2C)cc1`, the TGI was over 100 µM in [1]; over 100 µM in [2]; over 100 µM in test [3]; 55 µM in [4]; over 100 µM in test [6]; over 100 µM in test [10]. The TGI in test [7], in test [8] and in test [9] was over 100 µM in each case.
On to `O=C(OCc1ccccc1)C1(N2CN(C3(C(=O)OCc4ccccc4)CCCC3)CN(C3(C(=O)OCc4ccccc4)CCCC3)C2)CCCC1`, for which the TGI in test [2], in test [3], in test [4], in [5], in test [6] and in test [10] was over 10 µM in each case. The TGI in [7], in test [8] and in [9] was over 10 µM throughout.
On to `c1ccc2c(c1)nc(NC1CCCC1)c1[nH]c(C3CCCC3)nc12`, for which the TGI in test [1] is 43.1 µM; in test [2] it was 64.3 µM; in test [3], 36.5 µM; in test [4] it was 20.1 µM; in [5], 30.6 µM; in [10], 30.9 µM. The TGI is over 83.9 µM in test [7], over 100 µM in test [8] and 63.5 µM in test [9].
Regarding `C#CC(F)(F)[C@]1(O)CC[C@H]2[C@@H]3CCC4=CC(=O)CCC4=C3[C@@H](c3ccc(C(C)=O)cc3)C[C@@]21C`, the GI50 is 23.1 µM in [1]; 13.1 µM in test [3]; 0.109 µM in [4]; 15.7 µM in test [6]; 13.4 µM in [10]; 25.1 µM in [7]. Moreover, the GI50 in [8] is 28.4 µM; in test [9] it was 0.868 µM. In addition, the TGI in [1] was 84.8 µM; in [3], 38.6 µM; in test [4] it was over 50.5 µM; in test [6] it was over 87.5 µM; in [10], 39.8 µM; in test [7], over 95.3 µM. Besides, the TGI was over 100 µM in [8] and 37 µM in [9].
Turning to `CCOC(=O)CNC(=O)C(C)NC(=O)C(NC(=O)CC(c1ncc[nH]1)c1ncc[nH]1)C(C)CC` (configuration not stated), the TGI in test [1], in test [2], in test [3], in test [5], in test [6] and in test [7] was over 100 µM throughout. In addition, the TGI in test [8] and in test [9] was over 100 µM each time.
Consider `COP(=O)(OC)C(Cc1c[nH]c2ccccc12)NC(=O)OCc1ccccc1` (configuration not stated), for which the TGI is over 100 µM in test [1]; 29.2 µM in test [2]; over 100 µM in test [3]; over 100 µM in test [4]; over 100 µM in test [5]; over 100 µM in test [6]. In addition, the TGI in test [7], in [8] and in test [9] was over 100 µM each time.
Turning to `O=C1/C(=C/c2ccccc2[N+](=O)[O-])N=C(c2ccccc2)N1C1Nc2cc3c(cc2S1)NC(N1C(=O)/C(=C/c2ccccc2[N+](=O)[O-])N=C1c1ccccc1)S3` (configuration not stated), the TGI was over 100 µM in test [1]; over 100 µM in [4]; over 100 µM in test [5]; over 100 µM in [6]; over 100 µM in test [10]; 90.3 µM in [9].
